The source made the active and inactive calls. The rule behind the calls is not given here.
Tested on: CCRIS mutagenicity, Ames/micronucleus/aberration tests
Test: CCRIS mutagenicity studies
[1] = Test System: AMES SALMONELLA TYPHIMURIUM, Strain/Indicator: TA98, Metabolic Activation: NONE, Method: STANDARD PLATE

For `Nc1ccc(S(=O)(=O)O)cc1`, the mutagenic call (Test System: AMES SALMONELLA TYPHIMURIUM, Strain/Indicator: TA97, Metabolic Activation: HAMSTER, LIVER, S-9, AROCLOR 1254 (10 OR 30%), Method: PREINCUBATION) was “inactive; negative”, the mutagenic call (Test System: AMES SALMONELLA TYPHIMURIUM, Strain/Indicator: TA97, Metabolic Activation: NONE, Method: PREINCUBATION) was “inactive; negative” and the mutagenic call (Test System: AMES SALMONELLA TYPHIMURIUM, Strain/Indicator: TA97, Metabolic Activation: RAT, LIVER, S-9, AROCLOR 1254 (10 OR 30%), Method: PREINCUBATION) was “inactive; negative”. The mutagenic call (Test System: AMES SALMONELLA TYPHIMURIUM, Strain/Indicator: TA98, Metabolic Activation: HAMSTER, LIVER, S-9, AROCLOR 1254 (10 OR 30%), Method: PREINCUBATION) was “inactive; negative”, the mutagenic call (Test System: AMES SALMONELLA TYPHIMURIUM, Strain/Indicator: TA98, Metabolic Activation: NONE, Method: PREINCUBATION) was “inactive; negative” and the mutagenic call (Test System: AMES SALMONELLA TYPHIMURIUM, Strain/Indicator: TA98, Metabolic Activation: RAT, LIVER, S-9, AROCLOR 1254 (10 OR 30%), Method: PREINCUBATION) was “inactive; negative”. The mutagenic call (Test System: AMES SALMONELLA TYPHIMURIUM, Strain/Indicator: TA98, Metabolic Activation: RAT, LIVER, S-9, PHENOBARBITAL, Method: PREINCUBATION) was “inactive; negative”, the mutagenic call (Test System: AMES SALMONELLA TYPHIMURIUM, Strain/Indicator: TA100, Metabolic Activation: HAMSTER, LIVER, S-9, AROCLOR 1254 (10 OR 30%), Method: PREINCUBATION) was “inactive; negative” and the mutagenic call (Test System: AMES SALMONELLA TYPHIMURIUM, Strain/Indicator: TA100, Metabolic Activation: NONE, Method: PREINCUBATION) was “inactive; negative”. For the same compound, the mutagenic call (Test System: AMES SALMONELLA TYPHIMURIUM, Strain/Indicator: TA100, Metabolic Activation: RAT, LIVER, S-9, AROCLOR 1254 (10 OR 30%), Method: PREINCUBATION) was “inactive; negative”, the mutagenic call (Test System: AMES SALMONELLA TYPHIMURIUM, Strain/Indicator: TA100, Metabolic Activation: RAT, LIVER, S-9, PHENOBARBITAL, Method: PREINCUBATION) was “inactive; negative” and the mutagenic call (Test System: AMES SALMONELLA TYPHIMURIUM, Strain/Indicator: TA1535, Metabolic Activation: HAMSTER, LIVER, S-9, AROCLOR 1254 (10 OR 30%), Method: PREINCUBATION) was “inactive; negative”. The mutagenic call (Test System: AMES SALMONELLA TYPHIMURIUM, Strain/Indicator: TA1535, Metabolic Activation: NONE, Method: PREINCUBATION) was “inactive; negative”, the mutagenic call (Test System: AMES SALMONELLA TYPHIMURIUM, Strain/Indicator: TA1535, Metabolic Activation: RAT, LIVER, S-9, AROCLOR 1254 (10 OR 30%), Method: PREINCUBATION) was “inactive; negative” and the mutagenic call (Test System: Ames Salmonella typhimurium, Strain/Indicator: TA102, Metabolic Activation: None, Method: Preincubation) was “inactive; negative”. For the same compound, the mutagenic call (Test System: Ames Salmonella typhimurium, Strain/Indicator: TA102, Metabolic Activation: Rat, Liver, S9, Aroclor 1254, Method: Preincubation) was “inactive; negative”, the mutagenic call (Test System: Ames Salmonella typhimurium, Strain/Indicator: TA104, Metabolic Activation: None, Method: Preincubation) was “inactive; negative” and the mutagenic call (Test System: Ames Salmonella typhimurium, Strain/Indicator: TA104, Metabolic Activation: Rat, Liver, S9, Aroclor 1254, Method: Preincubation) was “inactive; negative”.

`c1cc2c3c(c1)=C1OC1C=3Cc1cc3ccccc3cc1-2` (stereo not drawn) was tested, and the mutagenic call [1] was “active; positive” and the mutagenic call (Test System: AMES SALMONELLA TYPHIMURIUM, Strain/Indicator: TA98, Metabolic Activation: RAT, LIVER, S-9, AROCLOR 1254, Method: STANDARD PLATE) was “active; positive”.

With `O=C1CCC(=O)N1Br` the mutagenic call (Test System: AMES SALMONELLA TYPHIMURIUM, Strain/Indicator: TA98, Metabolic Activation: HAMSTER, LIVER, S-9, AROCLOR 1254 (10%), Method: STANDARD PLATE) was “inactive; negative”, the mutagenic call [1] was “inactive; negative” and the mutagenic call (Test System: AMES SALMONELLA TYPHIMURIUM, Strain/Indicator: TA98, Metabolic Activation: RAT, LIVER, S-9, AROCLOR 1254 (10%), Method: STANDARD PLATE) was “inactive; negative”. For the same compound, the mutagenic call (Test System: AMES SALMONELLA TYPHIMURIUM, Strain/Indicator: TA100, Metabolic Activation: HAMSTER, LIVER, S-9, AROCLOR 1254 (10%), Method: STANDARD PLATE) was “active; positive”, the mutagenic call (Test System: AMES SALMONELLA TYPHIMURIUM, Strain/Indicator: TA100, Metabolic Activation: NONE, Method: STANDARD PLATE) was “inactive; negative” and the mutagenic call (Test System: AMES SALMONELLA TYPHIMURIUM, Strain/Indicator: TA100, Metabolic Activation: RAT, LIVER, S-9, AROCLOR 1254 (10%), Method: STANDARD PLATE) was “active; positive”. For the same compound, the mutagenic call (Test System: MOUSE LYMPHOMA, Strain/Indicator: L5178Y (TK+/TK-), Metabolic Activation: NONE, Method: SUSPENSION/PLATE) was “active; positive. reevaluation of results: equivocal” and the mutagenic call (Test System: MOUSE LYMPHOMA, Strain/Indicator: L5178Y (TK+/TK-), Metabolic Activation: RAT, LIVER, S-9, AROCLOR 1254, Method: SUSPENSION/PLATE) was “inactive; negative. reevaluation of results: negative”.

— PubChem BioAssay AID1259407 (Chemical Carcinogenesis Research Information System (CCRIS), 2018)
